Common to all, as to assay type: cell-based
One assay relates to IL-1β. The experiment in a line: IL-1β release by human epidermal keratinocytes activated by substance P (ELISA). As to the method: (§1) The purpose of this study is to evaluate the modulatory properties of the bacterial extract according to the invention in skin inflammation. To that end, an in vitro experimental approach based on the measurement of production and release of tumor necrosis factor-alpha (TNF-α) and interleukin-1 beta (IL-1β) by human epidermal keratinocytes, activated by substance P, is proposed as an in vitro model of cutaneous neurogenic inflammation. The study is carried out on normal human epidermal keratinocytes; these cells are obtained from newborn foreskin. These cells are cultured in a serum-free medium using conventional laboratory procedures. The determination of markers of cutaneous neurogenic inflammation is carried out on these keratinocytes cultured in a medium in the absence (control condition) or in the presence of the compounds to be tested (bacterial extract according to the invention and reference product), and optionally exposed to substance P. The keratinocytes are treated 3 hours before the stress induced by substance P and during the following 24 hours. Levels of proinflammatory cytokines (TNF-α and IL-1β) are quantified 24 h after the induction of inflammatory stress by the addition of substance P (0.5 μM). […] TNF-α and IL-1β productions are measured in the incubation media and quantified by the enzyme-linked immunosorbent assay (ELISA).

The subject of another assay is TNF-α. Put plainly: TNF-α release by human epidermal keratinocytes activated by substance P (ELISA). The method, then: as §1
For another assay, the system named is HBD2. The experiment in a line: RT-qPCR gene expression of innate immunity marker HBD2 in normal human epidermal keratinocytes. Particulars: 1.5 mM, 48 h incubation, three donors. As to the method: (§2) The purpose of this study is to evaluate the effects of the bacterial extract according to the invention on the gene expression of normal human epidermal keratinocytes by an RT-PCR technique on two genes related to innate immunity.
(§3) The study is carried out on normal human epidermal keratinocytes from three donors. These cells are used at their third passage. These cells are cultured in a standard medium supplemented with epidermal growth factor (EGF), pituitary extract (PE) and gentamycin, using conventional laboratory procedures.
(§4) The bacterial extract according to the invention is tested at three concentrations: 0.4, 2 and 10 μg/ml (μg/ml protein).
(§5) At the same time, calcium chloride is tested at 1.5 mM as reference product.
(§6) The keratinocytes are seeded in 24-well plates (50,000 cells per well) and cultured for 24 hours in a culture medium. […]
(§7) The expression of markers is analyzed by the RT-qPCR method on total RNA extracted from the cells under each condition. […] The quantity and quality of RNA are evaluated by capillary electrophoresis. cDNA is synthesized by reverse transcription of total RNA in the presence of oligo(dT) and Transcriptor Reverse Transcriptase. […]
(§8) Fluorescence incorporation into amplified DNA is continuously measured during PCR cycles. […]
(§9) The parameter RQ (relative quantification) is defined as the relative expression/100. […]
For orientation: In qPCR the cycle at which signal appears reflects the starting amount.

The test system of another assay is S100A7. The experiment in a line: RT-qPCR gene expression of innate immunity marker S100A7 in normal human epidermal keratinocytes. As to conditions: 1.5 mM, 48 h incubation, three donors. The method, then: as §2, §3, §4, §5, §6, §7, §8, §9
[1] abbreviates: 1 μM, keratinocytes treated 3 h before and 24 h during substance P (0.5 μM).

SMILES strings stand for the structures.

`COc1ccccc1CN[C@H]1C2CCN(CC2)[C@H]1C(c1ccccc1)c1ccccc1` [NK-1R inh, CP96345] showed an IL-1β mean in the assay with IL-1β (setting [1]) of 132.5 pg/mL. Besides, the inhibition at 1 µM was found to be 91% in the assay on IL-1β (Homo sapiens, Keratinocyte, versus Cont SP(+), substance P 0.5 μM, 24 h, read-out: IL-1β % Inh) and 90% in the assay on TNF-α (Homo sapiens, Keratinocyte, versus Cont SP(+), substance P 0.5 μM, 24 h, read-out: TNF-α % Inh). In addition, the TNF-α mean in the assay with TNF-α (setting [1]) is 4.6 pg/mL.

In the case of `[Ca+2].[Cl-].[Cl-]` [Calcium chloride, calcium chloride], the “HBD2 gene expression, Mean (multiplicative factor, RQ vs control)” value with HBD2 is 5.8; with HBD2 (listed as calcium chloride), “strong expression”. Also, the “S100A7 gene expression, Mean (multiplicative factor, RQ vs control)” value is given as 4.1 in the assay on S100A7 and “strong expression” in the assay on S100A7 (listed as calcium chloride).
